Results from patent US20060178398A1, “Therapeutic compounds for treating dyslipidemic conditions” (priority 2004, published 2006).

Tested on: Caco-2 cells
Test: Cholesterol efflux from cultured human cells (Caco-2, 3H-cholesterol, apoA-I)
Format: cell-based
Settings: 24 h, mean of quadruplicate incubations
Experimental: To assess the relevant biological activity of the LXR agonists, certain compounds were tested for their ability to increase cholesterol efflux from cultured human cells, as described by Sparrow et al., JBC, 277, 10021-10027, Mar. 22, 2002. Caco-2 cells, which are of human origin, were obtained from ATCC and grown in Opti-MEM (Gibco #51985-034) containing 10% FCS, non-essential amino acids (Gibco #11140-050), and vitamins (Gibco # 11120-052). Caco-2 cells were plated at 100,000 cells/well in 48-well plates. After four days the cells had reached confluence, and were then labeled with ^3H-cholesterol by incubation for 24 hours in fresh growth media containing ^3H-cholesterol (10 μCi/ml). Following labeling with ^3H-cholesterol, cells were washed and incubated an additional 24 hours in serum-free media containing 1 mg/ml BSA, to allow for equilibration of ^3H-cholesterol with intracellular cholesterol. Cholesterol efflux was initiated by adding 10 μg/ml apoA-I, with or without compound, in serum-free medium. Compounds were added to cell culture medium from DMSO solutions, and control cells received an equivalent amount of DMSO, never exceeding 0.1%. After 24 hours, media were harvested and cells dissolved in 0.1 M NaOH. Media were briefly centrifuged to remove non-adherent cells, and then aliquots of both the supernatants and the dissolved cells were subjected to liquid scintillation spectrometry to determine radioactivity. Cholesterol efflux is expressed as a percentage, calculated as (^3H-cholesterol in medium/(^3H-cholesterol in medium +^3H-cholesterol in cells))×100.

Row | Structure (SMILES) | % cholesterol efflux (compound concentration 10 nM) [%] | % cholesterol efflux (compound concentration 30 nM) [%] | % cholesterol efflux (compound concentration 100 nM) [%] | % cholesterol efflux (compound concentration 300 nM) [%] | % cholesterol efflux (compound concentration 1000 nM) [%] | % cholesterol efflux (compound concentration 3000 nM) [%]
1 | CCCc1c(OCCCN(C)c2cnc(CC(=O)O)cn2)ccc2c(C(F)(F)F)noc12 [Example 25, {5-[methyl(3-{[7-propyl-3-(trifluoromethyl)-1,2-benzisoxazol-6-yl]oxy}propyl)amino]pyrazin-2-yl}acetic acid] | 3.4 | 4.4 | 4.3 | 6.6 | 7.4 | 7.7
2 | CCCc1c(OCCCn2ccc3cc(CC(=O)O)c(Cl)cc32)ccc2c(C(F)(F)F)noc12 [Example 40, [6-chloro-1-(3-{[7-propyl-3-(trifluoromethyl)-1,2-benzisoxazol-6-yl]oxy}propyl)-1H-indol-5-yl]acetic acid] | 4.9 | 5.2 | 5.9 | 6.3 | 6.5 | 7.7
